Experimental data as given in patent publication US9216179B2, “Treatment of gout and hyperuricemia” (ARDEA BIOSCIENCES, INC., priority 2010, dated 2015).

Key:
IL-1 = IL-1 release/production after stimulation (FIG. 1, FIG. 3); details: FIG. 1
[1] = system: monosodium urate crystal-induced inflammatory response; assay: rat air pouch model of crystal-induced arthropathy; assay type: in vivo, Sprague-Dawley rats; details: PO 10, 30, 100 mg/kg; 150 mg MSU; FIGS. 4 and 5
Protocol: • 1. […] NaOH was added as required to maintain pH between 8-9. The solution was filtered and incubated at ambient with slow stirring continuously for 24 hours. • b. Crystals were washed, dried and sterilized by autoclaving. • c. Crystals were suspended in sterile saline at 0.67 mg/ml, 2.67 mg/ml and 10 mg/ml just prior to use. • 2. 110 Sprague-Dawley rats (male, 160-180 g) were obtained. Following quarantine, rats were accepted for the Study if no signs of clinical distress were noted during the 3-day quarantine period. The rats were maintained on certified laboratory diet and water ad libitum. • 3. The rats were ear-notched for individual identification. • 4. The rat weights were recorded. • 5. […] Exudates volume was measured and recorded for each animal. • a. […] Plasma extravasation was measured by optical absorbance at 620 nm for each exudate sample. • 14. […] Mean cell counts and standard deviations were determined for each group. • b. Mean optical absorbance measurements and standard deviations were determined for each group. • c. Group means and standard deviations for TNF-alpha and IL-1 were determined for each group. • d. Statistical significance of treatments on mean cell counts, mean optical absorbance measurements and mean cytokine measurements were determined by comparison of means for treatment and positive control groups with vehicle group.

`O=C([O-])CSc1nnc(Br)n1-c1ccc(C2CC2)c2ccccc12.[Na+]` [compound 1, 2-(5-Bromo-4-(4-cyclopropylnaphthalen-1-yl)-4H-1,2,4-triazol-3-ylthio)acetate sodium salt] was tested, and the “blocks IL-1 release, time after stimulation” value (IL-1) was ≤ 1 h and the “monosodium urate crystal-induced inflammatory response” value [1] was “blocked”.
